Laboratory results taken from paper PMC8607231, “Generation of KS-133 as a Novel Bicyclic Peptide with a Potent and Selective VIPR2 Antagonist Activity that Counteracts Cognitive Decline in a Mouse Model of Psychiatric Disorders” (Frontiers in Pharmacology, 2021).
Where a SMILES comes first, the peptide text is derived from it. Bridges are numbered along the chain shown (N, C = ends).

Key:
[1] = Peptide stability in rat plasma (RP-HPLC); type: in vitro ADME
Method: Each peptide (10 mM, 1 μl) was incubated with rat plasma (20 μl) prepared in-house. Immediately after mixing with plasma and after 24 h of incubation at 37°C, 80% acetonitrile (200 μl) was added to extract VIpep-3 and acetonitrile (200 μl) was added to extract KS-132, KS-133(monocyclic), and KS-133. The mixture was stored for 10 min on ice and then centrifuged at 20,000 × g for 10 min at 4°C. The supernatant was recovered and directly applied to RP-HPLC to determine the remaining amount of unmodified peptides in the sample.
The stability of peptides was evaluated in rat plasma. A peptide was incubated in rat plasma at 37°C for 0 and 24 h and the remaining amount of peptide was determined by RP-HPLC. By comparison with the peak area of the peptide, the remaining amount of the peptide after plasma incubation was estimated. […] KS-133(monocyclic) may form a pseudo bicyclic structure by ionic bond interaction between side chains of Lys and Asp.

[2] = tested on: VIPR2 activation-induced phosphorylation of CREB; test: Western blot of pCREB in prefrontal cortex of neonatal mice after s.c. injection; type: in vivo, mouse; settings: ICR mice at P12, KS-133 1 nmol/g s.c. simultaneously with Ro 25-1553 0.4 nmol/g, 1 h after injection
Method: For western blot analysis, ICR neonatal mice at P12 (7–10 g body weight) were subcutaneously (s.c.) injected with KS-133 (1 nmol/g) and Ro 25-1553 (0.4 nmol/g, Peptide Institute, Inc. Osaka, Japan), a selective VIPR2 agonist ([Gourlet et al., 1997]; [Harmar et al., 2012]), and adult C57BL/6J mice at 8 weeks of age (20–30 g body weight) were intranasally (i.n.) injected with KS-133 (20 nmol/mouse) and BAY 55-9837 (20 µg/mouse, Tocris Bioscience, Bristol, United Kingdom), another selective VIPR2 agonist ([Tsutsumi et al., 2002]; [Tian et al., 2019]). The dosages of these drugs were determined in a preliminary experiment using the change in phosphorylation of cAMP-response element-binding protein (CREB) as an index. Ro 25-1553 was dissolved in phosphate-buffered saline (PBS) and BAY 55-9837 was dissolved in distilled water. KS-133 was dissolved in saline with 1% dimethyl sulfoxide (DMSO; #13445-74, Nacalai Tesque, Inc., Kyoto, Japan) for s.c. injection or saline with 5% DMSO and 5 mg/ml poly-L-arginine (#P7762, Sigma-Aldrich, St. Louis, MO, United States) for i.n. injection. […]
FIGURE 4 Effects of subcutaneous (A) and intranasal (B) administration of KS-133 on VIPR2 activation-induced phosphorylation of CREB in the prefrontal cortex of mice. Phospho-CREB (pCREB), total CREB, and β-actin levels were analyzed by western blotting. […]

[3] = rat plasma, immediately after mixing

Compound: CC[C@H](C)[C@H](NC(=O)[C@H](CC(C)C)NC(=O)[C@@H]1CC(=O)NCCCC[C@@H]2NC(=O)[C@@H]3CCCN3C(=O)[C@H](CC(C)C)NC(=O)[C@H](Cc3ccc(O)cc3)NC(=O)[C@@H]3CCCN3C(=O)[C@@H]3CCCN3C(=O)[C@@H](NC(C)=O)CSSC[C@H](NC(=O)[C@H](CC(C)C)NC(=O)[C@H](Cc3ccc(O)cc3)NC2=O)C(=O)N1)C(N)=O [KS-133, Ac-c[Cys-Pro-Pro-Tyr-Leu-Pro-c(Lys-Tyr-Leu-Cys]-Asp)-Leu-Ile-NH2] (Ac-CPPYLPKYLCDLI-NH2; disulfide 1-10; lactam 7-11)
- Stability in rat plasma ([1]; 37°C, 24 h): highly stable for at least up to 24 h
- RP-HPLC peak area, Input (NT) ([1]; no plasma treatment): 161695
- RP-HPLC peak area, incubation time 24 h ([1]; rat plasma, 37°C, 24 h): 163537
- remaining at 24 h, 0.476 mM ([1]; rat plasma, 37°C, 24 h, read-out: Residual rate, incubation time 24 h): 99%
- RP-HPLC peak area, immediately after mixing [1, 3]: 165254
- Residual rate, immediately after mixing [1, 3]: 100%
- Effect on Ro 25-1553-induced increase in CREB phosphorylation [2]: suppressed the Ro 25-1553-induced increase in CREB phosphorylation
